From patent US20160194274A1, “PHENANTHRENE DERIVATIVES FOR USE AS MEDICAMENTS” (VALENTIA BIOPHARMA, priority 2012, published 2016)
Where two headings read alike, the source gives them in different places.

Key:
[1] = test system: ribonuclear foci in MyoD transformed fibroblasts derived from DM1 patients (>300 CTG repeats); test: FISH detection of aberrant ribonuclear foci in human DM1 fibroblasts; type: cell-based; settings: 24 h treatment, vs no treatment
Method: FIG. 1. Quantification of aberrant ribonuclear foci (DM1 disease hallmark) in human DM1 fibroblasts. Treatments with the compounds of Formula I were performed (VLT002, VLT015, VLT025, VLT024, VLT042, VLT040, VLT023, VLT026, VLT048, VLT045, VLT043, VLT049, VLT051 VLT053 and VLT056). (A) Number (medium) of foci/nuclei (No treatment vs. compound treatment). (B) Number of cells without foci (No treatment vs. compound treatment). n=100 minimum number of cells counted. T-Student test: * indicates p-value <0.05 ** p-value p<0.005 *** p-value p<0.0005.
After screening identification of the compounds of the invention (see FIG. 10), main validation was done using Fluorescence In Situ Hybridization (FISH) detection of aberrant aggregation of ribonuclear foci in cell lines from DM1 patients (see FIG. 1) and in DM1 Drosophila model (see FIG. 2) (Garcia-Lopez et al., Proc. Natl. Acad. Sci. USA. 108(29):11866-71 (2011)). Briefly, regarding human cells, it was used MyoD transformed fibroblasts derived from clinically diagnosed DM1 patients (>300 CTG repeats) routinely growing in DMEM supplemented with 10% heat-inactivated fetal bovine serum and maintained at 37° C. in a humidified incubator containing 5% CO2. To detect ribonuclear foci, cells were cultured over cover-slides in flat bottomed 24-well plates, after 24 h compounds of the invention were added to the cells at desiderate concentration, 24 h later in situ hybridization was done by fixing with 4% paraformaldehyde (PFA) 15 min at room temperature, and washed and stored in 70% ethanol. Cells were rehydrated with PBS and pre-hybridized 10 min at room temperature with a pre-hybridization buffer (formamide 30%, 2× saline-sodium citrate buffer (SSC)). Hybridization was performed in a light-proof wet chamber using the same pre-hybridization buffer supplemented with 0.02% bovine serum albumin (BSA), 1 mg/ml yeast tRNA (Sigma), 2 mM sodium (meta)vanadate, 1 mg/ml sperm DNA, 10% dextran sulfate and 1 ng/μl RNase free HPCL-purified Cy3-labeled (CAG)10 RNA. After hybridization cells were washed 2×15 minutes at 45° C. with the pre-hybridization buffer and washed with 1×PBS at room temperature. Slides were mounted with Vectashield solution with DAPI and number of foci by cell and number of cells with/without foci (see FIG. 1) were counted in a minimum of 100 cells for each treatment and concentration tested with a 63× objective in a Leica microscope. Same FISH approach was performed in Drosophila DM1 flies, where thoraces were embedded in OCT and transversal sections were taken with a Leica CM 15105 cryomicrotome. Sections were processed for in situ hybridization and counting for number of foci by cell with the same Cy3-labeled (CAG)10 probe (see FIG. 2).

(CUG)23 RNA hairpin = test: 2-Aminopurine fluorescence assay of hairpin RNA unfolding; type: biochemical; settings: (CUG)23 RNA, dose-range
Method: FIG. 7. […] Measurements of the fluorescence emitted (Y-axis), measured as relative fluorescence units (RFU), by 2-aminopurine in a (CUG)23 RNA (1 μM) in the presence of different compounds (dose-range approach), relative to the fluorescence emitted by the free RNA. […] These effects were not observed when incubating the RNA with DMSO (not shown), or with the small molecule pentamidine, published as a compound able to disrupt MBNL1 binding to CUG hairpins (Warf M B et al. Proc. Natl. Acad. Sci. USA 106:18551-56 (2009)). * indicates p-value <0.05 ** p-value <0.005 *** p-value p<0.0005.
Aminopurine Fluorescence assay to detect hairpin double strand RNA unfolding. An aliquot of 2-aminopurine (2AP)-CUG23 RNA (1 μM in binding buffer) was heated at 90° C. for 3 min, placed on ice, and further diluted to 30 nM in a final volume of 1 mL in binding buffer.

[2] = test system: indirect flight muscles of MHC-Gal4/+; UAS-i480CTGs/+ flies; test: Drosophila muscle histology (IFM muscle area); type: in vivo; settings: 100 μM, adult IFM
Method: FIG. 3. Representative bright field microscopy images of transversal sections of resin-embedded adult IFM (indirect flight muscles) of MHC-Gal4/+; UAS-i480CTGs/+ flies that had been treated with DMSO (left) or with VLT024 (100 μM) (right).
Additional assays involved: • Reverse Transcription-PCR (RT-PCR) to detect levels of normal/aberrant splicing events in specific genes. This approach was performed in human cells from patients (see FIG. 5) or from DM1 mouse (see FIG. 8 up) (HSA^LR, Mankodi A et al., Science, 289:1769-1773 (2000)) tissues (skeletal muscle), from which total RNA was extracted from ˜0.5-1.5×10^5 cells using the Zygem Tissue Plus kit. Serca 1, Cypher or cTNNT genes reverse transcription were performed and quantification of normal/aberrant spliced band forms was obtained (ImageJ software) after running PCR products in 2% agarose gels. As shown in FIGS. 5 and 8 compounds of the invention are able to recover disease phenotypes. • Drosophila Muscle Histology, where five-day old Drosophila thoraces were embedded in Epon for transversal, semi-thin sectioning. Muscle area was quantified (see FIG. 3) by binarizing images (equal dimensions) and quantifying pixels (%) within muscle tissue with ImageJ software. […] A minimum of 8 flies were analyzed in each case.

FAM-(CUG)10 RNA = test: Gel retardation assay (fluorescence EMSA) with FAM-(CUG)10; type: binding
Method: FIG. 6. Study of the binding of some compounds of Formula I (VLT002, VLT025 and VLT026) to FAM-(CUG)10 (repeat tract present in DM1, HDL2, SCA8 diseases) by means of gel retardation assays.
Fluorescence Electrophoretic Mobility Shift Assay to test RNA-compound binding. Briefly, an aliquot of carboxyfluorescein (FAM)-CUG10 RNA (DM1, HDL2, SCA8; see FIG. 6) was heated at 70° C. for 5 min and diluted to 300 nM. The binding reaction with compounds was then carried out as described in (Garcia-Lopez A et al. Proc. Natl. Acad. Sci. USA. 108(29):11866-71 (2011)). The reaction mix was loaded onto 8% polyacrylamide nondenaturing gels, and electrophoresis was conducted at 4° C. in TB 1× for approximately 30 min at 240V, followed by fluorescence visualization. Quantification of the free RNA band intensity was carried out using the ImageJ software. A non-linear regression analysis was used to calculate EC50, based on a total of three experimental replicates. Same approach was developed with (FAM)-CCUG8 (DM2), CAG10 (SCA3), CGG10 (FXTAS), GGGGCC5 (ALS/FSD), UGGAA6 (SCA31) probes (see FIG. 9).

MBNL1 = test: Visualization and quantification of MBNL1 release in DM1 fibroblasts; type: cell-based, human; settings: 100 μM
Method: FIG. 4. Visualization and quantification of MBNL1 release (A). Visualization of MBNL1 release for VLT002: Upper row: Untreated DM1 fibroblasts with MBNL1 localizing as ribonuclear foci (see dots in middle and right pictures) to the nucleus (DAPI, detected as gray spherical shadow in left and right pictures). […] (B) Quantification of the area (into the nucleus), where MBNL1 present (Photoshop software), reflects the MBNL1 release after VLT002, VLT025, VLT045, VLT049 and VLT040 treatment (100 μM).
At the same time human cells were recollected for foci counting. Some (150,000-300,000) were prepared for Muscleblind (MBNL1) detection (see FIG. 4). After PBS washes, cells were probed overnight, at 4° C. with anti-MBNL1 antibody (1:5000 dilutions, A2764 antibody) in 1×PBS. After washing cells with 1×PBS, cells were incubated with goat anti-rabbit Alexa 488 (1:500 dilution) for 2 h at RT. Cells were washed 2 times, for 10 min at room temperature with 1×PBS and then mounted onto glass slides using a hard-set mounting media that contains DAPI (Vectashield). Cells were imaged on a Leica microscope.

[3] = cited from earlier work
[4] = dose range of 5-40 mg/kg, compared to mexiletine

In the case of `COc1cc2c(cc1O)CC1c3c(cc(O)c(OC)c3-2)CCN1C` (stereo not drawn) [VLT015], the “aberrant ribonuclear foci: number of foci/nuclei (A) and/or number of cells without foci (B)” value [1] is reported as “significant reduction”.

In the case of `COc1cc(CCN(C)C)c2ccc3c(c2c1OC)=CC(OC)C(OC)C=3` (stereo not drawn) [VLT023], the “aberrant ribonuclear foci: number of foci/nuclei (A) and/or number of cells without foci (B)” value [1] is reported as “significant reduction” and the “modification of the hairpin loops formed by the CUG repeats (2-AP fluorescence)” value ((CUG)23 RNA hairpin) is reported as “modify the hairpin loops”.

For `COc1cc2ccc3c(CC[N+](C)(C)C)cc(OC)c(OC)c3c2cc1OC` [VLT024], the “aberrant ribonuclear foci: number of foci/nuclei (A) and/or number of cells without foci (B)” value [1] was “significant reduction” and the “muscle area relative to DMSO-treated flies” value [2] was “significant increase”.

For `COc1cc2c(ccc3c(CCN(C)Cc4ccccc4)cc(OCc4ccccc4)c(OC)c32)cc1OCc1ccccc1` [VLT026], the “binding to FAM-CUG10” value (FAM-(CUG)10 RNA) was “bind to FAM-CUG10” and the “aberrant ribonuclear foci: number of foci/nuclei (A) and/or number of cells without foci (B)” value [1] was “significant reduction”.

For `C[N+]1(C)CCc2cc3c(c4c2c1cc1ccccc14)OCO3` [VLT042], the “aberrant ribonuclear foci: number of foci/nuclei (A) and/or number of cells without foci (B)” value [1] was “significant reduction”.

With `CC(=O)N1CCc2cc3c(c4c2C1Cc1ccccc1-4)OCO3` (stereo not drawn) [VLT043] the “aberrant ribonuclear foci: number of foci/nuclei (A) and/or number of cells without foci (B)” value [1] was “significant reduction”.

In the case of `O=C1c2ccccc2-c2c3c(cc4ccnc1c24)OCO3` [VLT045], the “MBNL1 sequestration / MBNL1 release (nuclear area where MBNL1 present)” value (MBNL1) is reported as “relieve MBNL1 sequestration”, the “formation of foci (MBNL1 ribonuclear foci)” value (MBNL1) is reported as “effectively reduce the formation of foci” and the “aberrant ribonuclear foci: number of foci/nuclei (A) and/or number of cells without foci (B)” value [1] is reported as “significant reduction”.

With `CCNC(=O)Oc1cc2c(cc1OC)-c1c(OC)c(OC(=O)NCC)cc3c1C(C2)N(C)CC3` (stereo not drawn) [VLT048] the “aberrant ribonuclear foci: number of foci/nuclei (A) and/or number of cells without foci (B)” value [1] was “significant reduction”.

With `COc1cc2c3c(c1OC)-c1ccccc1CC3N(C)CC2` (stereo not drawn) [VLT049] the “MBNL1 sequestration / MBNL1 release (nuclear area where MBNL1 present)” value (MBNL1) was “relieve MBNL1 sequestration”, the “formation of foci (MBNL1 ribonuclear foci)” value (MBNL1) was “effectively reduce the formation of foci” and the “aberrant ribonuclear foci: number of foci/nuclei (A) and/or number of cells without foci (B)” value [1] was “significant reduction”.

With `COc1cc(CC[N+](C)(C)C)c2ccc3ccccc3c2c1OC` [VLT051] the “aberrant ribonuclear foci: number of foci/nuclei (A) and/or number of cells without foci (B)” value [1] was “significant reduction”.

With `C[N+](C)(C)CCc1cc(O)c(O)c2c1ccc1ccccc12` [VLT053] the “aberrant ribonuclear foci: number of foci/nuclei (A) and/or number of cells without foci (B)” value [1] was “significant reduction”.

With `CC(=O)Oc1cc2ccc3c(CCN(C)C)cc(OC(C)=O)c(OC(C)=O)c3c2cc1OC(C)=O` [VLT056] the “aberrant ribonuclear foci: number of foci/nuclei (A) and/or number of cells without foci (B)” value [1] was “significant reduction”.

In the case of `CC(C)(C)NCC(O)c1cc(Cl)c(N)c(Cl)c1` (stereo not drawn) [clenbuterol], the antimyotonic effect [3, 4] is given as “time-dependent antimyotonic effect”.

In the case of `CC(C)(C)NCC(O)COc1cccc2c1CC(O)C(O)C2` (stereo not drawn) [nadolol], the antimyotonic effect ([3]; in vivo) is listed as “did not show any significant antimyotonic effect”.

In the case of `N=C(N)c1ccc(OCCCCCOc2ccc(C(=N)N)cc2)cc1` [pentamidine, reference compound], the “modification of the hairpin loops formed by the CUG repeats (2-AP fluorescence)” value ((CUG)23 RNA hairpin) is reported as “not observed”.

In the case of `CC(C)NCC(O)COc1cccc2ccccc12` (stereo not drawn) [propranolol], the antimyotonic effect [3, 4] is listed as “time-dependent antimyotonic effect”.

For `CC(C)(C)NCC(O)c1ccc(O)c(CO)c1` (stereo not drawn) [salbutamol], the antimyotonic effect ([3]; in vivo) is listed as “did not show any significant antimyotonic effect”.
